From the supplement of paper PMC13380429

Columns and labels:
Settings in all cases: 72 h
U2OS [1] = experiment: cell viability relative to DMSO; higher = less toxic
Caco-2 [2] = experiment: as above
Calu-3 [3] = experiment: as above
Vero E6 [4] = experiment: as above
HepG2 [5] = experiment: as above
U2OS [6] = experiment: drug sensitivity score (DSS) for viability; higher = more toxic; extreme values may be limits of the assay
Caco-2 [7] = experiment: as above
Calu-3 [8] = experiment: as above
Vero E6 [9] = experiment: as above
HepG2 [10] = experiment: as above
U2OS [11] = experiment: relative viability EC50 (midpoint between 100% and the lowest measured viability); higher = less toxic
Caco-2 [12] = experiment: as above
Calu-3 [13] = experiment: as above
Vero E6 [14] = experiment: as above
HepG2 [15] = experiment: as above

Row | Structure (SMILES) | cell viability (U2OS [1]; 1 nM) | cell viability (U2OS [1]; 10 nM) | cell viability (U2OS [1]; 100 nM) | cell viability (U2OS [1]; 1000 nM) | cell viability (U2OS [1]; 10000 nM) | cell viability (Caco-2 [2]; 1 nM) | cell viability (Caco-2 [2]; 10 nM) | cell viability (Caco-2 [2]; 100 nM) | cell viability (Caco-2 [2]; 1000 nM) | cell viability (Caco-2 [2]; 10000 nM) | cell viability (Calu-3 [3]; 1 nM) | cell viability (Calu-3 [3]; 10 nM) | cell viability (Calu-3 [3]; 100 nM) | cell viability (Calu-3 [3]; 1000 nM) | cell viability (Calu-3 [3]; 10000 nM) | cell viability (Vero E6 [4]; 1 nM) | cell viability (Vero E6 [4]; 10 nM) | cell viability (Vero E6 [4]; 100 nM) | cell viability (Vero E6 [4]; 1000 nM) | cell viability (Vero E6 [4]; 10000 nM) | cell viability (HepG2 [5]; 1 nM) | cell viability (HepG2 [5]; 10 nM) | cell viability (HepG2 [5]; 100 nM) | cell viability (HepG2 [5]; 1000 nM) | cell viability (HepG2 [5]; 10000 nM) | drug sensitivity score (U2OS [6]) | drug sensitivity score (Caco-2 [7]) | drug sensitivity score (Calu-3 [8]) | drug sensitivity score (Vero E6 [9]) | drug sensitivity score (HepG2 [10]) | relative viability EC50 (U2OS [11]) | relative viability EC50 (Caco-2 [12]) | relative viability EC50 (Calu-3 [13]) | relative viability EC50 (Vero E6 [14]) | relative viability EC50 (HepG2 [15])
1 | CO[C@H]1CC=C2CCN3CCC4=C(CC(=O)OC4)[C@]23C1 [NSC-9965] | 101% | 105% | 98.2% | 106% | 108% | 100% | 99.6% | 101% | 105% | 108% | 101% | 102% | 94.3% | 101% | 111% | 92.5% | 95.8% | 95% | 91.6% | 105% | 99.9% | 95% | 100% | 100% | 104% | 0 | 0 | 0 | 0 | 0 | > 10 µM | > 10 µM | > 10 µM | > 10 µM | > 10 µM
2 | O=c1cc(N2CCOCC2)oc2c1ccc1ccccc12 [NU-7026] | 98.9% | 101% | 96.2% | 99.6% | 95.7% | 94.3% | 113% | 91% | 99.2% | 82.7% | 98.4% | 107% | 102% | 97.6% | 82.8% | 99% | 103% | 98.3% | 101% | 86.2% | 106% | 93.4% | 92.9% | 90.8% | 88% | 0 | 0.5 | 0.7 | 0.1 | 0.4 | > 10 µM | > 10 µM | > 10 µM | > 10 µM | > 10 µM
3 | O=C(Nc1ccc2[nH]ccc2c1)c1ccccc1 [OAC2] | 103% | 97.2% | 97.1% | 104% | 95.3% | 91.9% | 91.3% | 95.1% | 98.7% | 94.5% | 102% | 99% | 104% | 99.3% | 96.6% | 92.3% | 95.7% | 99.6% | 92.8% | 95.5% | 104% | 106% | 97.3% | 99.7% | 101% | 0 | 0 | 0 | 0 | 0 | > 10 µM | > 10 µM | > 10 µM | > 10 µM | > 10 µM
4 | CC(C)Oc1ccc(-c2nc(-c3cccc4c3CC[C@H]4NCCC(=O)O)no2)cc1C#N [RP-001] | 102% | 95.1% | 103% | 106% | 112% | 95% | 94.7% | 94.1% | 95.7% | 98.2% | 95.9% | 99.8% | 87.5% | 101% | 102% | 95% | 97.7% | 90.2% | 101% | 104% | 96.9% | 97.6% | 94.2% | 104% | 110% | 0 | 0 | 0 | 0 | 0 | > 10 µM | > 10 µM | > 10 µM | > 10 µM | > 10 µM
5 | O=C(Nc1ccccc1F)N[C@H]1N=C(c2ccccc2)c2ccccc2NC1=O [RSV604] | 98.5% | 98.5% | 98.5% | 105% | 100% | 92.5% | 107% | 97.2% | 102% | 85.2% | 94.2% | 90.5% | 99.2% | 102% | 89.8% | 95.1% | 101% | 95.8% | 95.3% | 92% | 109% | 110% | 95.9% | 96.5% | 109% | 0 | 0.1 | 0 | 0 | 0 | > 10 µM | > 10 µM | > 10 µM | > 10 µM | > 10 µM
6 | O[C@H]1CC[C@H](Nc2nc(-c3ccccc3)nc3[nH]ccc23)CC1 [SLV-320] | 99.5% | 94.4% | 97.7% | 95.7% | 96.9% | 102% | 94.4% | 102% | 102% | 102% | 99.5% | 93.9% | 99.5% | 90.8% | 102% | 104% | 109% | 101% | 99% | 91.4% | 92.8% | 106% | 94.9% | 99.2% | 91.7% | 0 | 0 | 0 | 0 | 0 | > 10 µM | > 10 µM | > 10 µM | > 10 µM | > 10 µM
